Assay [1] relates to M. tuberculosis strain resistant to capreomycin (CAP).
For assay [2], the system named is M. tuberculosis strain resistant to kanamycin (KM).
Assay [3] deals with M. tuberculosis strain resistant to rifampin (RMP).
Assay [4] deals with M. tuberculosis strain resistant to moxifloxacin (Mox).
The subject of assay [5] is M. tuberculosis strain resistant to streptomycin (SM).
Assay [6] concerns M. tuberculosis strain resistant to cycloserine (CS).
Assay [7] has as its system M. tuberculosis strain resistant to isoniazid (INH).

SMILES strings stand for the structures. ≈ marks a conversion by molar mass, not a printed value. Numbered stars: 1 amine (or outer) side, 2 acyl side, 3 side chain; on linkers, the order of the positions; unused ones are H or OH. Bridge positions count the residues as written; N and C are the ends. Square brackets hold non-standard residues; d marks the D form. Peptide text beside a SMILES is read from it. * marks the point of attachment. ξ: configuration not given here. NMeTrp(4-OMe) = CN[CH](Cc1c[nH]c2cccc(OC)c12)C(=O)O; X1 = O=C(C(N[*:1])C(O)c1ccccc1)[*:2]; NMeI = CC[CH](C)[CH](NC)C(=O)O; ξNMe2Val = CC(C)C(C(=O)*)N(C)C; NMeT = CN[CH](C(=O)O)[CH](C)O; NMeL = CN[CH](CC(C)C)C(=O)O; NMeV = CN[CH](C(=O)O)C(C)C

The MIC is the smallest concentration in the dilution series that meets the test's criterion for growth inhibition. On to `CCC(C)C(C(=O)NC1C(=O)N(C)C(C(C)O)C(=O)NC(C(C)C)C(=O)N(C)C(CC(C)C)C(=O)NC(C(C)C)C(=O)N(C)C(C(C)C)C(=O)N(C)C(Cc2c[nH]c3cccc(OC)c23)C(=O)NC(C(C)C)C(=O)NC(C(O)c2ccccc2)C(=O)NC(C(C)C)C(=O)OC1C)N(C)C(=O)C(NC(=O)C(C(C)C)N(C)C)C(C)C` (centres unmarked) [H-14] (ξNMe2Val-V[NMeI]T[NMeT]V[NMeL]V[NMeV][NMeTrp(4-OMe)]V[X1]V; ester 3-C; configuration not given here), for which the MIC was 0.29 µM (≈ 0.464 µg/mL) in assay [1]; <0.12 µM in assay [2]; 0.19 µM (≈ 0.304 µg/mL) in assay [3]; 0.31 µM (≈ 0.496 µg/mL) in assay [4]; <0.12 µM in assay [5]; <0.12 µM in assay [6]. In assay [7], the minimum inhibitory concentration (MIC) is <0.12 µM.
Regarding `CCC(C)C(C(=O)NC1C(=O)N(C)C(C(C)O)C(=O)NC(C(C)C)C(=O)N(C)C(CC(C)C)C(=O)NC(C(C)C)C(=O)N(C)C(C(C)C)C(=O)N(C)C(Cc2c[nH]c3cccc(OC)c23)C(=O)NC(C(C)C)C(=O)NC(Cc2ccccc2)C(=O)NC(C(C)C)C(=O)OC1C)N(C)C(=O)C(NC(=O)C(C(C)C)N(C)C)C(C)C` (centres unmarked) [H-16] (ξNMe2Val-V[NMeI]T[NMeT]V[NMeL]V[NMeV][NMeTrp(4-OMe)]VFV; ester 3-C; configuration not given here), the minimal inhibitory concentration (MIC) was 0.3 µM (≈ 0.475 µg/mL) in assay [1]; <0.12 µM in assay [2]; 0.18 µM (≈ 0.285 µg/mL) in assay [3]; 0.3 µM (≈ 0.475 µg/mL) in assay [4]; <0.12 µM in assay [5]; <0.12 µM in assay [6]. Further, the MIC in assay [7] is <0.12 µM.

(Values after patent publication US9090667B2, “Cyclic peptide from Nonomuraea sp., process for the production thereof, and pharmaceutical composition for the prevention or treatment of mycobacteria related disease comprising the same” (priority 2011, dated 2015).)
